Results on eight compounds are retold here after ChEMBL document CHEMBL1201862, “PubChem BioAssay data set” (2004).

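Grown in 96-well plates, cells were treated for 48 hours with each compound at five concentrations. Insufficient inhibition: endpoint recorded as highest concentration tested. GI50 marks 50% less growth.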 Active and inactive are the calls of the source. Rule as the data show it: active = GI50 up to about 1.1 µM and inactive = higher.

Among the test systems are U-251; SN12C; SF-295; HT-29; SR; UACC-257; MDA-MB-231; 786-0; OVCAR-5; OVCAR-4; HCT-15; SNB-19; IGROV-1; A549; HOP-62; UACC-62; OVCAR-3; Malme-3M; SK-MEL-28.
Test in all cases: NCI anticancer screen, dose series, 48 h

Regarding `O=[N+]([O-])c1ccc2nc(O)c(/C=C(\O)c3ccccc3)nc2c1`, the GI50 was 5.42 µM (inactive) with U-251; 12.2 µM (inactive) with SN12C; 18.8 µM (inactive) with SF-295; > 100 µM (inactive) in the assay with HT-29; 17.9 µM (inactive) in the assay on SR; > 100 µM (inactive) in the assay with UACC-257. In addition, the GI50 with MDA-MB-231 is 3.57 µM (inactive); in the assay on 786-0 it was 4.78 µM (inactive); in the assay with OVCAR-5, > 100 µM (inactive); with OVCAR-4 it was 2.86 µM (inactive); in the assay with HCT-15, 11.5 µM; with SNB-19 it was 8.09 µM (inactive). For the same compound, the GI50 is 20.6 µM (inactive) with IGROV-1; 7.64 µM (inactive) in the assay with A549; 5.52 µM (inactive) with HOP-62; 24.4 µM (inactive) with UACC-62; 27.9 µM (inactive) with OVCAR-3; 55.8 µM (inactive) in the assay with Malme-3M.
As to `C=CC(c1ccccc1)C1(O)c2cccc(O)c2C(=O)c2c(O)cccc21` (configuration not stated), the GI50 is 11.7 µM (inactive) with U-251; 14.9 µM (inactive) in the assay on SF-295; 11.5 µM (inactive) with HT-29; 5.89 µM (inactive) in the assay on SR; 17.8 µM (inactive) in the assay on UACC-257; 18.3 µM (inactive) in the assay on MDA-MB-231. The GI50 in the assay with 786-0 was 17.4 µM (inactive); in the assay on OVCAR-5, 22.1 µM (inactive); in the assay on OVCAR-4, 13.7 µM (inactive); with HCT-15, 10.8 µM; with SK-MEL-28 it was 18.8 µM (inactive); in the assay on IGROV-1, 14.9 µM (inactive). The GI50 in the assay on A549 is 14.7 µM (inactive); in the assay with HOP-62 it was 17.3 µM (inactive); in the assay with OVCAR-3 it was 18 µM (inactive).
As to `O=C(O)C1C(C(=O)O)C(C(=O)O)C1C(=O)O` (configuration not stated), the GI50 in the assay on U-251 is > 100 µM (inactive); with SN12C, > 100 µM (inactive); in the assay on SF-295, > 100 µM (inactive); in the assay with HT-29, > 100 µM (inactive); with SR it was 28.9 µM (inactive); in the assay on UACC-257, > 100 µM (inactive). In addition, the GI50 with MDA-MB-231 is > 100 µM (inactive); with 786-0, > 100 µM (inactive); with OVCAR-5, > 100 µM (inactive); in the assay with OVCAR-4, > 100 µM (inactive); in the assay on HCT-15 it was more than 100 µM; in the assay on SNB-19 it was > 100 µM (inactive). Besides, the GI50 in the assay on SK-MEL-28, in the assay on IGROV-1, in the assay with A549, in the assay with HOP-62, with UACC-62 and in the assay with OVCAR-3 was > 100 µM (inactive) throughout. Besides, the GI50 in the assay on Malme-3M is > 100 µM (inactive).
Take `O[C@@H]1C[C@H](Cl)c2c(Cl)sc(Cl)c21`: the GI50 in the assay on U-251, in the assay with SN12C, with SF-295, in the assay with HT-29, with SR and with UACC-257 was > 100 µM (inactive) throughout. In addition, the GI50 is > 100 µM (inactive) in the assay with MDA-MB-231; > 100 µM (inactive) in the assay with 786-0; > 100 µM (inactive) in the assay with OVCAR-5; > 100 µM (inactive) in the assay with OVCAR-4; more than 100 µM in the assay on HCT-15; > 100 µM (inactive) in the assay with SNB-19. In addition, the GI50 in the assay on SK-MEL-28, with IGROV-1, in the assay on A549, in the assay with HOP-62, in the assay with UACC-62 and in the assay on OVCAR-3 was > 100 µM (inactive) throughout. For the same compound, in the assay with Malme-3M, the GI50 is > 100 µM (inactive).
Take `Cn1ccnc1CC(C)(O)c1ccccc1` (configuration not stated): the GI50 in the assay with U-251, in the assay on SN12C, with SF-295, in the assay with HT-29, in the assay on SR and in the assay with UACC-257 was > 100 µM (inactive) throughout. Further, the GI50 is > 100 µM (inactive) with MDA-MB-231; > 100 µM (inactive) in the assay on 786-0; > 100 µM (inactive) in the assay with OVCAR-5; > 100 µM (inactive) in the assay with OVCAR-4; more than 100 µM in the assay with HCT-15; > 100 µM (inactive) in the assay with SNB-19. Also, the GI50 in the assay with SK-MEL-28, in the assay with IGROV-1, in the assay on A549, in the assay with HOP-62, with UACC-62 and in the assay with OVCAR-3 was > 100 µM (inactive) throughout. Moreover, in the assay with Malme-3M, the GI50 was > 100 µM (inactive).
Take `CC(C)(C)/C(O)=C\c1nc2ccc(C(F)(F)F)cc2[nH]c1=O`: the GI50 in the assay with U-251, with SN12C, with SF-295, in the assay on HT-29, in the assay on SR and in the assay with UACC-257 was > 100 µM (inactive) throughout. Besides, the GI50 is > 100 µM (inactive) with MDA-MB-231; > 100 µM (inactive) in the assay on 786-0; > 100 µM (inactive) with OVCAR-5; > 100 µM (inactive) with OVCAR-4; more than 100 µM with HCT-15; > 100 µM (inactive) in the assay with SNB-19. Besides, the GI50 in the assay on SK-MEL-28, in the assay on IGROV-1, in the assay with A549, in the assay with HOP-62, with UACC-62 and with OVCAR-3 was > 100 µM (inactive) in each case. Besides, the GI50 in the assay with Malme-3M is > 100 µM (inactive).
For `CCCc1c(OC)c(=O)c2c(O)cc(OC)c3c4c(OC)cc(O)c5c(=O)c(OC)c(CCC)c(c1c23)c54`, the GI50 in the assay with U-251 is 0.615 µM (active); with SN12C, 3.15 µM (inactive); in the assay with SF-295, 9.62 µM (inactive); in the assay on HT-29 it was 4.79 µM (inactive); in the assay on SR, 0.31 µM (active); in the assay with UACC-257, 13.4 µM (inactive). Further, the GI50 was 2.46 µM (inactive) with MDA-MB-231; 2.84 µM (inactive) in the assay on 786-0; 10.4 µM (inactive) in the assay with OVCAR-5; 3.72 µM (inactive) in the assay with OVCAR-4; 2.9 µM with HCT-15; 4.32 µM (inactive) with SNB-19. Further, the GI50 is 5.68 µM (inactive) with SK-MEL-28; 2.98 µM (inactive) in the assay on IGROV-1; 1.32 µM (inactive) in the assay with A549; 6.47 µM (inactive) in the assay with HOP-62; 10.3 µM (inactive) in the assay on UACC-62; 3.47 µM (inactive) with OVCAR-3. Further, in the assay on Malme-3M, the GI50 is 2.43 µM (inactive).
Turning to `COC(OC)C1OCC(n2cc(F)c(=O)[nH]c2=O)C1O` (configuration not stated), the GI50 with U-251, in the assay on SN12C, in the assay on SF-295, with HT-29, with SR and in the assay on UACC-257 was > 100 µM (inactive) in each case. Also, the GI50 in the assay on MDA-MB-231 is > 100 µM (inactive); in the assay with 786-0, > 100 µM (inactive); in the assay with OVCAR-5, > 100 µM (inactive); in the assay on OVCAR-4, > 100 µM (inactive); in the assay on HCT-15, more than 100 µM; in the assay with SNB-19, > 100 µM (inactive). Moreover, the GI50 with SK-MEL-28, in the assay on IGROV-1, in the assay on A549, in the assay on HOP-62, in the assay on UACC-62 and in the assay on OVCAR-3 was > 100 µM (inactive) in each case. Further, the GI50 in the assay on Malme-3M is > 100 µM (inactive).
